Experimental findings from paper PMC9841533, “Microtubule-Stabilizing 1,2,4-Triazolo[1,5-a]pyrimidines as Candidate Therapeutics for Neurodegenerative Disease: Matched Molecular Pair Analyses and Computational Studies Reveal New Structure–Activity Insights” (Journal of Medicinal Chemistry, 2022) are described below.

Where two headings read alike, the source gives them in different places.

For assay [1], the system named is acetylated α-tubulin (AcTub) levels in QBI293 cells. The assay can be described thus: QBI293 cell assay of MT stabilization: acetylated α-tubulin ELISA. The class given is cell-based. How it is done: (§1) All test compounds were initially screened in the same cell-based (QBI293) assay of MT stabilization used in our previous SAR studies[11],[12] so as to allow direct comparison with literature data. Changes in levels of acetylated α-tubulin (AcTub) and total α-tubulin (α-Tub), relative to vehicle-treated negative control cells, were determined after 4 h of incubation with test compounds at 1 and 10 μM. To account for possible day-to-day differences in the responsiveness of cells to MT-stabilizing treatment, compound-dependent changes in AcTub levels relative to DMSO-treated cells were also normalized to the corresponding changes caused by 100 nM of 5 that was used as a positive control. In addition, docking studies, binding free energy calculations, and in selected cases, molecular dynamic simulations were conducted using an X-ray structure of the vinca and seventh sites (PDB: 5NJH,[10]7CLD[13]). […] For selected compounds, additional studies included testing in the QBI293 cell AcTub assay at additional compound concentrations, and/or evaluation of test compounds for their ability to prevent MT collapse in primary neuron cultures treated with the phosphatase inhibitor, okadaic […] (OA). Finally, cytotoxicity studies in QBI293 and HeLa cells were also conducted for representative examples (Supporting Information).
(§2) Compound-induced changes in acetylated-tubulin and α-tubulin in QBI293 cells or primary mouse or rat neurons were as previously described.[11],[12] […] The plated cells were incubated overnight, after which the medium was aspirated and fresh medium containing vehicle (0.25–0.3% DMSO) or test compound was added. Test compounds were prepared as 4–20 mM stock solutions in 100% DMSO, and these were diluted in culture medium prior to addition to the QBI293 cells. After 4 h incubation, whole-cell extracts were prepared from the QBI293 cells as described[11] and the supernatant fraction from each sample was assessed for protein content by bicinchoninic acid (BCA) assay. The amount of acetyl-tubulin (AcTub) and α-tubulin (αTub) within the cell extract samples was quantified using specific enzyme-linked immunosorbent assays (ELISA), as previously described.[11] Acetyl-tubulin levels were determined in a similar manner in rat or mouse cortical neuron cultures in which embryonic dissociated cortical neurons were plated at 3 × 10^5 cells/well in poly-D-lysine-coated 12-well plates, essentially as previously described.[11] […] Culture homogenates were prepared for the determination of AcTub levels by ELISA as previously described.[11]

In assay [2] the test system is total α-tubulin (α-Tub) levels in QBI293 cells. The assay can be described thus: QBI293 cell assay: total α-tubulin ELISA. It counts as cell-based. As for the experimental part: as §1, §2
Background: In an ELISA, binding on a coated surface is turned into a signal by an enzyme label.

Setting [3] is: 4 h, 1 uM compound, read-out: AcTub (1uM).
Where [4] appears, read: 4 h, 10 uM compound, read-out: AcTub (10 uM).
Where [5] appears, read: 4 h incubation, 1 μM, read-out: AcTub 1 μM, fold-change compared to vehicle (DMSO)-treated cells.
[6] abbreviates: 4 h incubation, 10 μM, read-out: AcTub 10 μM, fold-change compared to vehicle (DMSO)-treated cells.
[7] abbreviates: 4 h, 1 uM compound, read-out: AlfaTub (1uM).
Where [8] appears, read: 4 h, 10 uM compound, read-out: AlfaTub (10 uM).
Setting [9] is: 4 h incubation, 1 μM, read-out: α-Tub 1 μM, fold-change compared to vehicle (DMSO)-treated cells.
Setting [10] is: 4 h incubation, 10 μM, read-out: α-Tub 10 μM, fold-change compared to vehicle (DMSO)-treated cells.

For the compound `CN(C)CCCOc1cc(F)c(-c2c(Cl)nc3ncnn3c2NCC2(C)CC2)c(F)c1` [Compound 28, 5-Chloro-6-(4-(3-(dimethylamino)propoxy)-2,6-difluorophenyl)-N-((1-methylcyclopropyl)methyl)-[1,2,4]triazolo[1,5-a]pyrimidin-7-amine], the “AcTub (1 uM - normalized)” value in assay [1] (1 uM compound) turned out to be 0.53. Also, in assay [1] (10 uM compound), the “AcTub (10 uM - normalized)” value was 0.09. Also, the fold induction at 1 µM came out at 2.81 in assay [1] (setting [3]), 2.81 ± 0.35 in assay [1] (setting [5]), 0.84 in assay [2] (setting [7]) and 0.84 ± 0.12 in assay [2] (setting [9]). Also, the fold induction at 10 µM in assay [1] (setting [4]) was 0.49; in assay [1] (setting [6]), 0.49 ± 0.03; in assay [2] (setting [8]) it was 1.1; in assay [2] (setting [10]) it was 1.1 ± 0.2. In addition, the “AcTub 1 μM, fold-change compared to positive control compound 5 (100 nM) (in parentheses)” value (“AcTub 1 μM, fold-change” for short) in assay [1] (4 h incubation, 1 μM) was 0.53 fold-change. In addition, the “AcTub 10 μM, fold-change compared to positive control compound 5 (100 nM) (in parentheses)” value (“AcTub 10 μM, fold-change” for short) in assay [1] (4 h incubation, 10 μM) stood at 0.09 fold-change.
On to `CN(C)CCCOc1cc(F)c(-c2c(Cl)nc3ncnn3c2NCC2(C(F)(F)F)CC2)c(F)c1` [Compound 29, 5-Chloro-6-(4-(3-(dimethylamino)propoxy)-2,6-difluorophenyl)-N-((1-(trifluoromethyl)cyclopropyl)methyl)-[1,2,4]triazolo[1,5-a]pyrimidin-7-amine], for which the “AcTub (1 uM - normalized)” value in assay [1] (1 uM compound) was determined as 0.63. In addition, the “AcTub (10 uM - normalized)” value in assay [1] (10 uM compound) amounted to 0.14. Also, the fold induction at 1 µM in assay [1] (setting [3]) is 3.75; in assay [1] (setting [5]), 3.75 ± 0.13; in assay [2] (setting [7]), 0.82; in assay [2] (setting [9]) it was 0.82 ± 0.01. Moreover, the fold induction at 10 µM amounted to 0.81 in assay [1] (setting [4]), 0.81 ± 0.09 in assay [1] (setting [6]), 1.24 in assay [2] (setting [8]) and 1.24 ± 0.13 in assay [2] (setting [10]). For the same compound, the “AcTub 1 μM, fold-change” value in assay [1] (4 h incubation, 1 μM) came to 0.63 fold-change. For the same compound, the “AcTub 10 μM, fold-change” value in assay [1] (4 h incubation, 10 μM) was 0.14 fold-change.
For `CN(C)CCCOc1cc(F)c(-c2c(Cl)nc3ncnn3c2NCC2CCC2)c(F)c1` [Compound 30, 5-Chloro-N-(cyclobutylmethyl)-6-(4-(3-(dimethylamino)propoxy)-2,6-difluorophenyl)-[1,2,4]triazolo[1,5-a]pyrimidin-7-amine], the “AcTub (1 uM - normalized)” value in assay [1] (1 uM compound) turned out to be 0.61. Besides, in assay [1] (10 uM compound), the “AcTub (10 uM - normalized)” value is given as 0.15. Also, the fold induction at 1 µM in assay [1] (setting [3]) was found to be 1.49; in assay [1] (setting [5]), 1.49 ± 0.18; in assay [2] (setting [7]), 0.8; in assay [2] (setting [9]), 0.8 ± 0.03. In addition, the fold induction at 10 µM worked out at 0.37 in assay [1] (setting [4]), 0.37 ± 0.12 in assay [1] (setting [6]), 0.93 in assay [2] (setting [8]) and 0.93 ± 0.05 in assay [2] (setting [10]). For the same compound, in assay [1] (4 h incubation, 1 μM), the “AcTub 1 μM, fold-change” value was determined as 0.61 fold-change. The “AcTub 10 μM, fold-change” value in assay [1] (4 h incubation, 10 μM) is recorded as 0.15 fold-change.
On to `C#Cc1cc(F)c(-c2c(Cl)nc3ncnn3c2N[C@H](C)C(C)C)c(F)c1` [Compound 34, (R)-5-Chloro-6-(4-ethynyl-2,6-difluorophenyl)-N-(3-methylbutan-2-yl)-[1,2,4]triazolo[1,5-a]pyrimidin-7-amine], for which, in assay [1] (1 uM compound), the “AcTub (1 uM - normalized)” value is listed as 0.39. Further, in assay [1] (10 uM compound), the “AcTub (10 uM - normalized)” value worked out at 0.88. In addition, the fold induction at 1 µM in assay [1] (setting [3]) came to 3.56; in assay [1] (setting [5]), 3.56 ± 0.27; in assay [2] (setting [7]), 0.98; in assay [2] (setting [9]), 0.98 ± 0.002. Besides, the fold induction at 10 µM in assay [1] (setting [4]) came to 8.02; in assay [1] (setting [6]), 8.02 ± 0.25; in assay [2] (setting [8]), 1.03; in assay [2] (setting [10]) it was 1.03 ± 0.008. The “AcTub 1 μM, fold-change” value in assay [1] (4 h incubation, 1 μM) amounted to 0.39 fold-change. Further, the “AcTub 10 μM, fold-change” value in assay [1] (4 h incubation, 10 μM) is listed as 0.88 fold-change.
Turning to `C[C@H](Nc1c(-c2c(F)cc(C#CCCO)cc2F)c(Cl)nc2ncnn12)C(F)(F)F` [Compound 42, (S)-4-(4-(5-Chloro-7-((1,1,1-trifluoropropan-2-yl)amino)-[1,2,4]triazolo[1,5-a]pyrimidin-6-yl)-3,5-difluorophenyl)but-3-yn-1-ol], the “AcTub (1 uM - normalized)” value in assay [1] (1 uM compound) is on record as 0.23. Moreover, the “AcTub (10 uM - normalized)” value in assay [1] (10 uM compound) came out at 0.92. Also, the fold induction at 1 µM in assay [1] (setting [3]) came to 1.62; in assay [1] (setting [5]), 1.62 ± 0.05; in assay [2] (setting [7]), 0.88; in assay [2] (setting [9]) it was 0.88 ± 0.01. Moreover, the fold induction at 10 µM in assay [1] (setting [4]) is 6.4; in assay [1] (setting [6]), 6.4 ± 0.32; in assay [2] (setting [8]), 0.69; in assay [2] (setting [10]) it was 0.69 ± 0.02. For the same compound, the “AcTub 1 μM, fold-change” value in assay [1] (4 h incubation, 1 μM) is given as 0.23 fold-change. The “AcTub 10 μM, fold-change” value in assay [1] (4 h incubation, 10 μM) is given as 0.92 fold-change.
Consider `C[C@H](Nc1c(-c2c(F)cc(C#CCCCO)cc2F)c(Cl)nc2ncnn12)C(F)(F)F` [Compound 43, (S)-5-(4-(5-Chloro-7-((1,1,1-trifluoropropan-2-yl)amino)-[1,2,4]triazolo[1,5-a]pyrimidin-6-yl)-3,5-difluorophenyl)pent-4-yn-1-ol], for which the “AcTub (1 uM - normalized)” value in assay [1] (1 uM compound) is listed as 2.29. Besides, the “AcTub (10 uM - normalized)” value in assay [1] (10 uM compound) was determined as 1.93. Moreover, the fold induction at 1 µM in assay [1] (setting [3]) was 17.1; in assay [1] (setting [5]) it was 17.1 ± 0.5; in assay [2] (setting [7]) it was 0.93; in assay [2] (setting [9]) it was 0.93 ± 0.02. Further, the fold induction at 10 µM in assay [1] (setting [4]) turned out to be 14.4; in assay [1] (setting [6]) it was 14.4 ± 0.6; in assay [2] (setting [8]), 0.87; in assay [2] (setting [10]), 0.87 ± 0.03. Further, the “AcTub 1 μM, fold-change” value in assay [1] (4 h incubation, 1 μM) is listed as 2.29 fold-change. Moreover, the “AcTub 10 μM, fold-change” value in assay [1] (4 h incubation, 10 μM) is on record as 1.93 fold-change. Further, the “total α-Tub at higher (30 μM) concentration” value in assay [2] (4 h, 30 μM) is listed as “reduction in total tubulin levels could be detected only at higher concentrations”.
For the compound `C[C@H](Nc1c(-c2c(F)cc(C#CCCN(C)C)cc2F)c(Cl)nc2ncnn12)C(F)(F)F` [Compound 44, (S)-5-Chloro-6-(4-(4-(dimethylamino)but-1-yn-1-yl)-2,6-difluorophenyl)-N-(1,1,1-trifluoropropan-2-yl)-[1,2,4]triazolo[1,5-a]pyrimidin-7-amine], in assay [1] (1 uM compound), the “AcTub (1 uM - normalized)” value is 2.01. Also, the “AcTub (10 uM - normalized)” value in assay [1] (10 uM compound) is given as 1.17. Besides, the fold induction at 1 µM in assay [1] (setting [3]) was determined as 10.9; in assay [1] (setting [5]), 10.9 ± 0.24; in assay [2] (setting [7]), 0.77; in assay [2] (setting [9]), 0.77 ± 0.04. Also, the fold induction at 10 µM in assay [1] (setting [4]) was 6.33; in assay [1] (setting [6]), 6.33 ± 0.22; in assay [2] (setting [8]), 0.93; in assay [2] (setting [10]) it was 0.93 ± 0.03. The “AcTub 1 μM, fold-change” value in assay [1] (4 h incubation, 1 μM) is 2.01 fold-change. In assay [1] (4 h incubation, 10 μM), the “AcTub 10 μM, fold-change” value is given as 1.17 fold-change.
For `CC(C)[C@@H](C)Nc1c(-c2c(F)cc(C#CCN(C)C)cc2F)c(Cl)nc2ncnn12` [Compound 47, (R)-5-Chloro-6-(4-(3-(dimethylamino)prop-1-yn-1-yl)-2,6-difluorophenyl)-N-(3-methylbutan-2-yl)-[1,2,4]triazolo[1,5-a]pyrimidin-7-amine], in assay [1] (1 uM compound), the “AcTub (1 uM - normalized)” value is given as 0.40. For the same compound, in assay [1] (10 uM compound), the “AcTub (10 uM - normalized)” value worked out at 1.4. In addition, the fold induction at 1 µM in assay [1] (setting [3]) amounted to 2.21; in assay [1] (setting [5]) it was 2.21 ± 0.6; in assay [2] (setting [7]), 0.98; in assay [2] (setting [9]), 0.98 ± 0.04. In addition, the fold induction at 10 µM in assay [1] (setting [4]) came out at 7.7; in assay [1] (setting [6]), 7.68 ± 0.85; in assay [2] (setting [8]), 1.03; in assay [2] (setting [10]) it was 1.03 ± 0.04. In addition, the “AcTub 1 μM, fold-change” value in assay [1] (4 h incubation, 1 μM) is reported as 0.40 fold-change. The “AcTub 10 μM, fold-change” value in assay [1] (4 h incubation, 10 μM) came out at 1.40 fold-change.
